Assay results taken from patent US20240124432A1, “HERBICIDAL COMPOUNDS” (SYNGENTA CROP PROTECTION AG, priority 2020, published 2024).

Columns and labels:
Assay type in all cases: in vivo
SETFA [1] = assay: Pre-emergence biological efficacy; settings: Setaria faberi, 312 h, evaluated after 13 days, read-out: damage to plant (100=total damage to plant; 0=no damage to plant)
Description: (§1) Seeds of weeds and/or crops were sown in standard soil in pots. After cultivation for one day under controlled conditions in a glasshouse (at 24/19° C., day/night; 16 hours light), the plants were sprayed with an aqueous spray solution derived from the formulation of the technical active ingredient in a small amount of acetone and a special solvent and emulsifier mixture referred to as IF50 (11.12% Emulsogen EL360 TM+44.44% N-methylpyrrolidone+44.44% Dowanol DPM glycol ether), to create a 50g/l solution which was then diluted using 0.2% Genapol XO80 as diluent to give the desired final dose of test compound.
(§2) The test plants were then grown under controlled conditions in the glasshouse (at 24/18° C., day/night; 15 hours light; 50% humidity) and watered twice daily. After 13 days the test was evaluated (100=total damage to plant; 0=no damage to plant).

EPHHL [2] = assay: Pre-emergence biological efficacy; settings: Euphorbia heterophylla, 312 h, evaluated after 13 days, read-out: damage to plant (100=total damage to plant; 0=no damage to plant)
Description: as §1, §2

IPOHE [3] = assay: Pre-emergence biological efficacy; settings: Ipomoea hederacea, 312 h, evaluated after 13 days, read-out: damage to plant (100=total damage to plant; 0=no damage to plant)
Description: as §1, §2

ECHCG [4] = assay: Pre-emergence biological efficacy; settings: Echinochloa crus-galli, 312 h, evaluated after 13 days, read-out: damage to plant (100=total damage to plant; 0=no damage to plant)
Description: as §1, §2

AMAPA [5] = assay: Pre-emergence biological efficacy; settings: Amaranthus palmeri, 312 h, evaluated after 13 days, read-out: damage to plant (100=total damage to plant; 0=no damage to plant)
Description: as §1, §2

LOLPE [6] = assay: Pre-emergence biological efficacy; settings: Lolium perenne, 312 h, evaluated after 13 days, read-out: damage to plant (100=total damage to plant; 0=no damage to plant)
Description: as §1, §2

SETFA [7] = assay: Post-emergence biological efficacy; settings: Setaria faberi, 312 h, evaluated after 13 days, read-out: damage to plant (100=total damage to plant; 0=no damage to plant)
Description: as §1, with “14 days” for “one day”
(§3) The test plants were then grown under controlled conditions in the glasshouse (at 24/18° C., day/night; 15 hours light; 50% humidity)and watered twice daily. After 13 days the test was evaluated (100=total damage to plant; 0=no damage to plant).

EPHHL [8] = assay: Post-emergence biological efficacy; settings: Euphorbia heterophylla, 312 h, evaluated after 13 days, read-out: damage to plant (100=total damage to plant; 0=no damage to plant)
Description: as §1, with “14 days” for “one day”
as §3

IPOHE [9] = assay: Post-emergence biological efficacy; settings: Ipomoea hederacea, 312 h, evaluated after 13 days, read-out: damage to plant (100=total damage to plant; 0=no damage to plant)
Description: as §1, with “14 days” for “one day”
as §3

ELEIN = assay: Post-emergence biological efficacy; settings: 312 h, evaluated after 13 days, read-out: damage to plant (100=total damage to plant; 0=no damage to plant)
Description: as §1, with “14 days” for “one day”
as §3

DIGSA = assay: Post-emergence biological efficacy; settings: Digitaria sanguinalis, 312 h, evaluated after 13 days, read-out: damage to plant (100=total damage to plant; 0=no damage to plant)
Description: as §1, with “14 days” for “one day”
as §3

ECHCG [10] = assay: Post-emergence biological efficacy; settings: Echinochloa crus-galli, 312 h, evaluated after 13 days, read-out: damage to plant (100=total damage to plant; 0=no damage to plant)
Description: as §1, with “14 days” for “one day”
as §3

CHEAL = assay: Post-emergence biological efficacy; settings: Chenopodium album, 312 h, evaluated after 13 days, read-out: damage to plant (100=total damage to plant; 0=no damage to plant)
Description: as §1, with “14 days” for “one day”
as §3

AMAPA [11] = assay: Post-emergence biological efficacy; settings: Amaranthus palmeri, 312 h, evaluated after 13 days, read-out: damage to plant (100=total damage to plant; 0=no damage to plant)
Description: as §1, with “14 days” for “one day”
as §3

LOLPE [12] = assay: Post-emergence biological efficacy; settings: Lolium perenne, 312 h, evaluated after 13 days, read-out: damage to plant (100=total damage to plant; 0=no damage to plant)
Description: as §1, with “14 days” for “one day”
as §3

Measured: pest or weed control at 250 g/ha

CCOC(=O)C1(C)CC(c2cc(-c3ccc(C(F)(F)F)cn3)c(F)cc2Cl)=NO1 (stereo not drawn) [Compound 1-79, Ethyl 3-[2-chloro-4-fluoro-5-[5-(trifluoromethyl)-2-pyridyl]phenyl]-5-methyl-4H-isoxazole-5-carboxylate]
40%: LOLPE [6]
50%: AMAPA [5]
60%: SETFA [1] | EPHHL [2]
80%: ECHCG [4]
90%: ELEIN
100%: all other assays above

CCOC(=O)C1(C)CC(c2cc(-c3ncc(C(F)(F)F)cc3F)c(F)cc2Cl)=NO1 (stereo not drawn) [Compound 1-91, Ethyl 3-[2-chloro-4-fluoro-5-[3-fluoro-5-(trifluoromethyl)-2-pyridyl]-phenyl]-5-methyl-4H-isoxazole-5-carboxylate]
90%: LOLPE [6]
100%: all other assays above

CCOC(=O)C1(C)CC(c2cc(-c3ncc(C(F)(F)F)cc3Cl)ccc2Cl)=NO1 (stereo not drawn) [Compound 1-99, Ethyl 3-[2-chloro-5-[3-chloro-5-(trifluoromethyl)-2-pyridyl]-phenyl]-5-methyl-4H-isoxazole-5-carboxylate]
80%: LOLPE [6]
100%: all other assays above

CC1(C(=O)O)CC(c2cc(-c3ncc(C(F)(F)F)cc3Cl)c(F)cc2Cl)=NO1 (stereo not drawn) [Compound 1-101, 3-[2-chloro-5-(3-chloro-5-trifluoromethyl-2-pyridyl)-4-fluoro-phenyl]-5-methyl-4H-isoxazole-5-carboxylic acid]
80%: LOLPE [6]
100%: all other assays above
